Several values for one entry are separate records, joined by “and”; a condition that tells them apart may be missing. Equal values may be shown once. Read-outs that look alike come from different tables or passages of the source.
How the values were obtained:
[1] = system: Wi-38 cells; assay: MTT cytotoxicity assay, normal human fibroblasts; assay type: cell-based; conditions: 72 h, mean ± SEM; for MNTC: dose at 100% cell viability, read-out: Wi-38 EC100
Procedure: (§1) Wi-38, Caco-2 and HepG-2 cells were cultured in DMEM medium-contained 10% FBS, seeded as 5 × 10^3 cells per well in 96-well cell culture plate and incubated at 37 °C in 5% CO2 incubator. After 24 h, serial concentrations of the test compounds were incubated with cells for 72 h. Cell viability was assayed via MTT protocol[27] (Supplementary data). IC50 values of the synthesized compounds were measured via the Graphpad Instat software. Morphological changes were examined using phase contrast inverted microscope with a digital camera (Olympus, Japan). […]
(§2) Normal human lung fibroblast Wi-38 cell line was used to detect cytotoxicity of the studied compounds.
Wi-38 cell line was cultured in DMEM medium-contained 10% fetal bovine serum (FBS), seeded as 5x10^3 cells per well in 96-well cell culture plate and incubated at 37 °C in 5% CO2 incubator. After 24 h for cell attachment, serial concentrations of the synthetic compounds and standard chemotherapy (5-fluorouracil) were incubated with Wi-38 cells for 72 h. Cell viability was assayed by MTT method Twenty microliters of 5 mg/ml MTT (Sigma, USA) was added to each well and the plate was incubated at 37 °C for 3 h. Then MTT solution was removed, 100 µl DMSO was added, and the absorbance of each well was measured with a microplate reader (BMG LabTech, Germany) at 570 nm. The dose (EC50 and EC100) values (at 50% and100% cell viability, respectively) of the tested compounds was estimated by the Graphpad Instat software. […]

[2] = system: caspase-3/7; assay: Caspase-3/7 activation assay (ApoONE kit) in HepG-2 cells; assay type: cell-based, human; conditions: HepG-2 cells treated with IC50 doses; relative to untreated cells; mean ± SEM
Procedure: (§3) ApoONE® Caspase-3/7 kit was used following the manufacturer’s instructions (Supplementary data).
(§4) 5.2. Caspase-3/7 activation assay
(§5) The caspase 3/7 activation was assessed, as a key indicator in caspase-dependent apoptosis, using ApoONE® Caspase-3/7 kit following the manufacturer’s instructions. This kit used a nonfluorescence substrate […]
(§6) the generation of the fluorescence signals of Rhodamine 110. Thesesignal were measured at 490 nm excitation and 520 nm emission using the fluorescence microplate reader (BMG LabTech, Germany). […]

[3] = system: Caco-2 cells; assay: MTT cytotoxicity assay, colorectal cancer cells; assay type: cell-based, human; conditions: for SI against the screened cell lines: Caco-2 and HepG-2 cells versus Wi-38; for IC50: Homo sapiens; for Caco-2 LE: LE = 1.37 (pIC50)/NHA; for Caco-2 LLE: LLE = pIC50–cLog P; for Morphological alterations of treated Caco-2 cells: microscopic examination after 72 h, compared to untreated and 5-FU-treated cells; for Caco-2 SI: ratio of IC50 against normal cells (Wi-38) to IC50 against Caco-2
Procedure: as §1, §2
(§7) Wi-38 cell line was cultured in DMEM medium-contained 10% fetal bovine serum (FBS), seeded as 5x10^3 cells per well in 96-well cell culture plate and incubated at 37 °C in 5% CO2 incubator. After 24 h for cell attachment, serial concentrations of the synthetic compounds and standard chemotherapy (5-fluorouracil) were incubated with Wi-38 cells for 72 h. Cell viability was assayed by MTT method Twenty microliters of 5 mg/ml MTT (Sigma, USA) was added to each well and the plate was incubated at 37 °C for 3 h. Then MTT solution was removed, 100 µl DMSO was added, and the absorbance of each well was measured with a microplate reader (BMG LabTech, Germany) at 570 nm. The dose (EC50 and EC100) values (at 50% and100% cell viability, respectively) of the tested compounds was estimated by the Graphpad Instat software.
(§8) The anticancer effect of the above-mentioned compounds was assayed using human colon cancer cell line (Caco-2) and liver cancer cell line (HepG-2) that were cultured in DMEM (Lonza, USA) supplemented with 10%
(§9) FBS. All cancer cells (5x10^3 cells/well) were seeded in sterile 96-well plates. After 24h, serial concentrations of the tested compounds and 5-fluorouracil (Fu) were incubated with two cancer cell lines for 72 h at 37 °C in 5% CO2 incubator. MTT method was done as described above. The half maximal inhibitory concentration (IC50) values were calculated using the Graphpad Instat software. Furthermore, cellular morphological changes before […]
(§10) contrast inverted microscope with a digital camera (Olympus, Japan).

[4] = system: HepG-2 cells; assay: MTT cytotoxicity assay, liver cancer cells; assay type: cell-based, human; conditions: for IC50: Homo sapiens, HepG2; for Morphological alterations of treated HepG-2 cells: microscopic examination after 72 h, compared to untreated and 5-FU-treated cells; for HepG-2 SI: ratio of IC50 against normal cells (Wi-38) to IC50 against HepG-2
Procedure: as §1, §2, §7, §8, §9, §10

[5] = system: Caco-2 cells; assay: Flow cytometric analysis of apoptosis (annexin V/PI); assay type: cell-based, human; conditions: IC50 doses, 72 h, annexin-stained, mean ± SEM
Procedure: Reverse: 5′-[…]-3′
5.4. Flow cytometric analysis of apoptosis […]
human colon cancer cell line (Caco-2) for 72 h, at their minimum IC50 doses. After trypsinization, the untreated and treated cancer cells were stained with fluorescein isothiocyanate (FITC)-annexin V/ propidium iodide (PI) for 15 min. After washing with PBS, the annexin-stained apoptotic population was quantified using flow cytometry at FITC signal detector (FL1) against the phycoerythrin emission signal detector (FL2).

[6] = system: Bcl2; assay: RT-qPCR of Bcl2 expression in Caco-2 cells; assay type: cell-based, human; conditions: 0.06 µM for 72 h, mean ± SEM
Procedure: RNAs of untreated and treated cancer cells were extracted using Gene JET RNA purification kit (Thermo Scientific, USA). Then cDNAs were synthesized using cDNA Synthesis Kit (Thermo Scientific, USA). Real time PCR was performed using SYBR green master mix and specific primers (Forward/Reverse) as detailed in the supplementary data. […]
5.3. Real-time Quantitative PCR Analysis of Bcl2 […]
µM, for 72 h in 5% CO2 incubator. RNAs of untreated and treated cancer cells were extracted using Gene JET RNA purification kit (Thermo Scientific, USA). Then cDNAs were synthesized using cDNA Synthesis Kit (Thermo Scientific, USA). Real time PCR was performed using SYBR green master mix and specific primers […]
The thermal cycling parameters were pre-denaturation, followed by 40 amplification cycles of 1 min at 95°C and 30 s at 60 °C and at 72°C for 30 sec. GAPDH mRNA was quantified to adjust the amount of mRNA in each sample. The 2−ΔΔCT equation was used to estimate change in gene expressions before and after treatment of cancer cells.
Table 1 primer sequences of the used genes

[7] = system: caspase-3/7; assay: Caspase-3/7 activation assay (ApoONE kit) in Caco-2 cells; assay type: cell-based, human; conditions: Caco-2 cells treated with IC50 doses; relative to untreated cells; mean ± SEM
Procedure: as §3, §4, §5, §6

[8] = system: HepG-2 cells; set-up: method as in PMID 30826510; conditions: previously studied nitro lead, cited from earlier work
[9] = system: Wi-38 cells; set-up: method as in PMID 30826510; conditions: MTT; previously studied nitro lead; cited from earlier work
[10] = Caco-2, -log (IC50), molar, read-out: Caco-2 IC50 (converted)
[11] = Caco-2, MTT, 72 h, mean ± SEM, read-out: Caco-2 IC50 (converted)
[12] = Caco-2 and HepG-2 cells, MTT, read-out: IC50 against the screened cell lines
[13] = MTT, 72 h, mean ± SEM, read-out: HepG-2 IC50
[14] = read-out: HepG-2 pIC50 (converted)

CCOC(=O)c1ccc(NC(=O)C2(OC(=O)[C@H](Cc3ccccc3)NC(=O)Oc3ccccc3)CCCCC2)cc1 [7j, Ethyl-4-(1-((2-((phenoxycarbonyl)amino)-3-phenylpropanoyl)oxy)cyclohexanecarboxamido) benzoate]
MNTC [1]: 1770 ± 694 nM
IC50 [1]: 16800 ± 637 nM
Relative fold increment in caspase 3/7 activity, HepG-2 [2]: 2.960 ± 0.065 fold
SI against the screened cell lines [3]: 97–243
IC50 [3, 10]: 69 nM
IC50 [3, 11]: 69 ± 6 nM
IC50 [3, 12]: 70 to 120 nM
Caco-2 LE [3]: 0.239
Caco-2 LLE [3]: 3.461
Morphological alterations of treated Caco-2 cells [3]: severe shrinkage and morphological alterations
Caco-2 SI [3]: 242.956
IC50 [4, 13]: 87 ± 7 nM
IC50 [4, 14]: 87.1 nM
Morphological alterations of treated HepG-2 cells [4]: severe shrinkage and morphological alterations
HepG-2 SI [4]: 192.689
% Apoptosis (total apoptotic cell population) [5]: 52.6% and 52.650 ± 5.310%
Bcl2 gene relative fold change [6]: 0.127 ± 0.009 fold
Relative fold increment in caspase 3/7 activity, Caco-2 [7]: 3.586 ± 0.098 fold

CCOC(=O)c1ccc(NC(=O)C2(OC(=O)Cc3ccccc3)CCCCC2)cc1 [7g, Ethyl-4-(1-(2-phenylacetoxy)cyclohexanecarboxamido)benzoate]
MNTC [1]: 1300 ± 105 nM
IC50 [1]: 17100 ± 2150 nM
Relative fold increment in caspase 3/7 activity, HepG-2 [2]: 4.118 ± 0.083 fold
SI against the screened cell lines [3]: 262–266
IC50 [3, 10]: 64.1 nM
IC50 [3, 11]: 64 ± 6 nM
IC50 [3, 12]: 60 nM
Caco-2 LE [3]: 0.328
Caco-2 LLE [3]: 3.453
Morphological alterations of treated Caco-2 cells [3]: severe shrinkage and morphological alterations
Caco-2 SI [3]: 266.828
IC50 [4, 13]: 65 ± 4 nM
IC50 [4, 14]: 65 nM
Morphological alterations of treated HepG-2 cells [4]: severe shrinkage and morphological alterations
HepG-2 SI [4]: 262.723
% Apoptosis (total apoptotic cell population) [5]: 58.7% and 58.730 ± 2.930%
Bcl2 gene relative fold change [6]: 0.087 ± 0.009 fold

CCOC(=O)c1ccc(NC(=O)C2(OC(=O)Cc3c[nH]c4ccccc34)CCCCC2)cc1 [7a, Ethyl-4-(1-(2-(1H-indol-3-yl)acetoxy)cyclohexanecarboxamido)benzoate]
MNTC [1]: 2980 ± 640 nM
IC50 [1]: 11200 ± 3750 nM
Relative fold increment in caspase 3/7 activity, HepG-2 [2]: 2.938 ± 0.063 fold
SI against the screened cell lines [3]: 97–243
IC50 [3, 10]: 88.1 nM
IC50 [3, 11]: 88 ± 10 nM
IC50 [3, 12]: 70 to 120 nM
Caco-2 LE [3]: 0.292
Caco-2 LLE [3]: 4.025
Morphological alterations of treated Caco-2 cells [3]: severe shrinkage and morphological alterations
Caco-2 SI [3]: 127.215
IC50 [4, 13]: 115 ± 16 nM
IC50 [4, 14]: 115 nM
Morphological alterations of treated HepG-2 cells [4]: severe shrinkage and morphological alterations
HepG-2 SI [4]: 97.347
% Apoptosis (total apoptotic cell population) [5]: 50.9% and 50.905 ± 5.975%
Bcl2 gene relative fold change [6]: 0.471 ± 0.051 fold
Relative fold increment in caspase 3/7 activity, Caco-2 [7]: 3.086 ± 0.038 fold

O=c1[nH]cc(F)c(=O)[nH]1 [5-FU, 5-fluorouracil, reference compound]
MNTC [1]: 840 ± 55 nM
IC50 [1]: 1990 ± 135 nM
Relative fold increment in caspase 3/7 activity, HepG-2 [2]: 1.001 ± 0.001 fold
IC50 [3, 11]: 865 ± 39 nM
Caco-2 SI [3]: 2.301
IC50 [4, 13]: 1610 ± 28 nM
HepG-2 SI [4]: 1.233
Bcl2 gene relative fold change [6]: 0.948 ± 0.027 fold
Relative fold increment in caspase 3/7 activity, Caco-2 [7]: 1.016 ± 0.009 fold

O=C(Cc1ccccc1)OC1(C(=O)Nc2ccc([N+](=O)[O-])cc2)CCCCC1 [V]
IC50 ([8]; MTT): 14 nM
SI (HepG-2) ([8]; Wi-38 vs HepG-2): 3.091
IC50 [9]: 44 nM

Reference: PMC9794698, “Structure optimization of new tumor-selective Passerini α-acyloxy carboxamides as Caspase-3/7 activators” (Scientific Reports, 2022)
